Experimental data taken from patent US7132437B2, “Renal-selective biphenylalkyl 1H-substituted-1,2,4-triazole angiotensin II antagonists for treatment of hypertension” (G.D. Searle, priority 1990, dated 2006).

Assays:
[1] = system: spontaneously hypertensive rats (SHR); assay: Assay D: In Vivo Effects of Chronic Infusion of Conjugate (mean arterial pressure, heart rate); design: species or system rat
Procedure: Assay D: In Vivo Effects of Chronic Infusion of Conjugate of the Invention
(§1) This in vivo experiment was conducted to characterize the effects of the Example 79 conjugate on spontaneously hypertensive rats (SHR) by acute administration i.v. and by chronic administration i.v. The […] compound or saline vehicle was infused continuously for four days in SHR. Mean arterial pressure was measured (Gould Chart Recorder, model 3800; Statham P23 Db pressure transducer) via an indwelling femoral artery catheter between 10:00 a.m. and 2:00 P.M. each day. The Example 79 conjugate (10 mg/hr) or saline was infused via a jugular vein catheter with a Harvard infusion pump. […] A test was conducted to determine whether the Example 79 conjugate would antagonize non-renal, vascular angiotensin II receptors. In this test AII was administered by bolus injection (100 ng/kg) to the SHR rats (described above) on the control day and on days 1, 3 and 4 during conjugate infusion.

[2] = molecular target: T1, non-renal, vascular angiotensin II receptors (Rattus norvegicus, UniProt P25095); assay: Assay D: AII pressor response during conjugate infusion (systemic AII antagonism); format: in vivo; conditions: SHR; for AII Pressor Response: 10 mg/hr infusion, AII bolus 100 ng/kg, control day 31 ± 4
T1 construct: from tissue; host or cells: whole animal: spontaneously hypertensive rat (SHR), systemic vasculature
T1 sequence (P25095 1-359): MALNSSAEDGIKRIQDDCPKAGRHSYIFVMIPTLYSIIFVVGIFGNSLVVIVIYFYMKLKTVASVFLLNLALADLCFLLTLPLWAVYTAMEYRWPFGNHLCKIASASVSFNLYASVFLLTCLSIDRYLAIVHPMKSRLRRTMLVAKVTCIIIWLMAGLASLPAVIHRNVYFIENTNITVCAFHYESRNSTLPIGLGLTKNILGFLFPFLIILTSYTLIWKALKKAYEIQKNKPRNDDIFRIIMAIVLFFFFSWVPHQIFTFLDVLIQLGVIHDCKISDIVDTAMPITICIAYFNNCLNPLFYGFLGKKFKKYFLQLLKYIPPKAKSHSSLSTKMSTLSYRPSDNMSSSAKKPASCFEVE
Procedure: as §1

| AII Pressor Response ([2]; day 1, ± SD) | AII Pressor Response ([2]; day 3) | AII Pressor Response ([2]; day 4) | Compound | mean arterial pressure compared to saline vehicle control ([1]; 10 mg/hr infused for four days) | tachycardia ([1]; day 1 of conjugate infusion) | Heart Rate ([1]; days 2 to 4 of conjugate infusion) | systemic angiotensin II receptor antagonism ([2]; AII bolus 100 ng/kg on control day and days 1, 3 and 4 of infusion) | MAP (mean arterial pressure) ([1]; 10 mg/hr i.v. infusion, day 1, control day 183 ± 5, ± SD) | Heart Rate ([1]; 10 mg/hr i.v. infusion, day 1, control day 352 ± 9, ± SD) | MAP (mean arterial pressure) ([1]; 10 mg/hr i.v. infusion, day 2, control day 183 ± 5) | Heart Rate ([1]; 10 mg/hr i.v. infusion, day 2, control day 352 ± 9) | MAP (mean arterial pressure) ([1]; 10 mg/hr i.v. infusion, day 3, control day 183 ± 5) | Heart Rate ([1]; 10 mg/hr i.v. infusion, day 3, control day 352 ± 9) | MAP (mean arterial pressure) ([1]; 10 mg/hr i.v. infusion, day 4, control day 183 ± 5) | Heart Rate ([1]; 10 mg/hr i.v. infusion, day 4, control day 352 ± 9) |
| --- | --- | --- | --- | --- | --- | --- | --- | --- | --- | --- | --- | --- | --- | --- | --- |
|  |  |  | CCCCc1nc(CCCC)n(Cc2ccc(-c3ccccc3C(=O)NNC(=O)CCC(NC(C)=O)C(=O)O)cc2)n1 (stereo not drawn) [Example 79 conjugate, N-acetylglutamic acid, 5-[[4′-[(3,5-dibutyl-1H-1,2,4-triazol-1-yl)methyl][1,1′-biphenyl]-2-yl]]carbonylhydrazide] | lowered mean arterial pressure | Tachycardia was observed on day 1 | heart rate was returned to control level during the next three days | No evidence for systemic angiotensin II receptor antagonism was observed |  |  |  |  |  |  |  |  |
| 30 ± 6 | 29 ± 5 | 25 ± 3 | CCCCc1nc(CCCC)n(Cc2ccc(-c3ccccc3C(=O)NNC(=O)CCC(NC(C)=O)C(=O)O)cc2)n1 (stereo not drawn) [Ex. #18 Conjugate, N-acetylglutamic acid, 5-[[4′-[(3,5-dibutyl-1H-1,2,4-triazol-1-yl)methyl][1,1′-biphenyl]-2-yl]]carbonylhydrazide] |  |  |  |  | 159 ± 7 mm Hg | 395 ± 21 Beats/min. | 155 ± 4 mm Hg | 352 ± 12 Beats/min. | 154 ± 6 mm Hg | 344 ± 22 Beats/min. | 166 ± 9 mm Hg | 374 ± 20 Beats/min. |
